According to patent US9005649B2, “Methods for making controlled delivery devices having zero order kinetics” (Board of Regents, the University of Texas System, priority 2009, dated 2015):

What was measured:
[1] = Release of crystal violet from impermeable polyimide tube delivery devices into phosphate buffered saline (USP Disintegration Apparatus, UV-Vis); assay type: physicochemical; conditions: for linearity of release: 28 days; for total duration of release, percentage release extrapolated to 100%: PBS pH 7.37, 37° C., 28 days data
Protocol: Lengths of polyimide tubes were provided having a length of 20 mm and a diameter of 125 microns. At the centre of each tube, a passageway with a diameter of 30 microns was made using standard chemical procedures.
Seven (7) tubes having the optimal passageways were selected and loaded with a concentrated solution of crystal violet in ethanol by capillary method. The tubes were then allowed to stand for 24 hours at room temperature to evaporate alcohol from the tubes, such that the tube is tightly packed with a solid crystal violet composition.
After taking an initial weight measurement, an average amount of 126 micrograms of crystal violet was estimated inside the tubes. The ends of the tubes were sealed with a bioglue and dried.
Single passageway tubes made according to Example I were placed in microvials containing 0.26 ml of phosphate buffered saline (0.01 M phosphate, pH 7.37). The vials were placed in a USP Disintegration Apparatus having dip rate of 30-32 dips per minute. The apparatus was connected to a waterbath maintained at 37° C. for the entire duration of study. The buffer was changed every 48 hours, sampled, and analyzed for the amount of crystal violet released using a UV-Vis Spectrophotometer for 28 days.
Several drug delivery devices were constructed in accordance with in Example I except that two passageways were made located equidistant from the tube centre. The optimal seven (7) were selected and loaded with crystal violet in accordance with Example I.
Several drug delivery devices were constructed in accordance with Example I except that three passageways were made located equidistant from each end of the tube. The optimal seven (7) were selected and loaded with crystal violet in accordance with Example I.
Seven (7) lengths of polyimide tubes were provided having a length of 20 mm and a diameter of 125 microns. The tubes were then loaded with a concentrated solution of crystal violet in ethanol by capillary method. The tubes were then allowed to stand for 24 hours at room temperature to evaporate alcohol from the tubes, such that the tube is tightly packed with a solid crystal violet composition. One end of the tube was sealed with a bioglue while the other end was left open.
A drug delivery device made in accordance with Example VIII was subjected to release studies as described in Example II. […] The percentage release when extrapolated to 100% corresponds to the total duration of release of approximately 2 years.

[2] = Release of crystal violet from single outlet port devices of 200, 400 and 600 microns inside diameter (incubator, UV-Vis); assay type: physicochemical; conditions: one outlet port devices, 200, 400, 600 microns inside diameter, 3.0 ml PBS pH 7.37, 37° C., 7 days
Protocol: Drug delivery devices were made having one outlet port and one sealed end. […] Three different variation of devices were prepared with different inside diameters, as in 200, 400, and 600 microns. Four devices of each type were subjected to release studies as described in Example I. Single passageway tubes were placed in micro vials containing 3.0 ml of phosphate buffered saline (0.01 M phosphate, pH 7.37). The vials were placed in an incubator maintained at 37° C. for the entire duration of study. The buffer was changed every 24 hours, sampled, and analyzed for the amount of crystal violet released using a UV-Vis Spectrophotometer for seven (7) days.

[3] = Release of crystal violet from impermeable polyimide tube delivery devices into phosphate buffered saline (USP Disintegration Apparatus, UV-Vis); assay type: physicochemical; conditions: single outlet port device
[4] = continuous release for seven days, glaucoma; cited from earlier work
[5] = intravenous, AIDS patients with CMV retinitis; cited from earlier work

CN(C)c1ccc(C(=C2C=CC(=[N+](C)C)C=C2)c2ccc(N(C)C)cc2)cc1 [crystal violet]
amount released relative to single passageway device ([1]; double passageway device): two-fold
linearity of release ([1]; double passageway device): significant linear agent release
total duration of release, percentage release extrapolated to 100% ([1]; double passageway device): approximately 22 years
total duration of release, percentage release extrapolated to 100% ([1]; single passageway device (30 micron passageway, 20 mm x 125 micron tube)): approximately 43 years
linearity of release ([1]; single passageway device): significant linearity of release
amount released relative to single passageway device ([1]; triple passageway device): three-fold
linearity of release ([1]; triple passageway device): significant linear agent release
total duration of release, percentage release extrapolated to 100% ([1]; triple passageway device): approximately 15 years
linearity of release [2]: significant linearity of release
linearity of release ([3]; 5 days): significant linearity of release
total duration of release, percentage release extrapolated to 100% ([3]; no surface passageways, one open end, 5 days data): approximately 2 years

CC[C@@H]1C(=O)OC[C@@H]1Cc1cncn1C [pilocarpine]
release rate from ocular insert [4]: 20 to 40 µg/h

Nc1nc(O)c2ncn(COC(CO)CO)c2n1 [Ganciclovir]
patients experiencing bone marrow toxicity resulting in neutropenia (neutrophil count <1000) [5]: 30-50%
